Literature values, collected in US20120035103A1 (priority 2010, published 2012).

Test system: cells that line the nasal cavity

Appearance of the cells that line the nasal cavity (0.50% TDM, versus 0.125% TDM): became more evident
Compound: CCCCCCCCCCCCCCO[C@@H]1O[C@H](CO)[C@@H](O[C@H]2O[C@H](CO)[C@@H](O)[C@H](O)[C@H]2O)[C@H](O)[C@H]1O [TDM, Tetradecyl-β-d-maltoside]
Toxicity to the cells that line the nasal cavity (0.125% TDM): minimal toxicity
